Measured values: ChEMBL document CHEMBL1156829 (Proc Natl Acad Sci U S A, 2008)

Key:
[1] = NOVARTIS: Cytotoxicity against human hepatocellular carcinoma cell line (Huh7); assay type: toxicity, cell-based, Huh-7; settings: Huh7 cells (hepatocellular carcinoma cell line)
[2] = system: Plasmodium falciparum; experiment: NOVARTIS: Inhibition of Plasmodium falciparum W2 (drug-resistant) proliferation in erythrocyte-based infection assay; assay type: functional, organism-based; settings: Plasmodium falciparum, W2; read-out: EC50
[3] = system: Plasmodium falciparum; experiment: NOVARTIS: Inhibition of Plasmodium falciparum 3D7 (drug-susceptible) proliferation in erythrocyte-based infection assay; assay type: functional, organism-based; settings: Plasmodium falciparum, 3D7

Row | Compound | CC50 [1] | EC50 [2] | EC50 [3]
1 | Oc1c(C(Nc2ccccn2)c2ccncc2)ccc2cccnc12 (stereo unspecified) | > 10 µM | 0.892 µM | 0.83 µM
2 | O=C(Nc1ccc(C2=NCCN2)cc1)c1ccc(NC(=O)c2ccc(C3=NCCN3)cc2)cc1 | > 10 µM | 0.0135 µM | 0.0819 µM
3 | COC(=O)C1=C(C)NC2=C(C(=O)CC(c3ccc(OC)c(OC)c3)C2)C1c1cccc(O)c1 (stereo unspecified) | > 100 µM | 0.05 µM | 0.092 µM
4 | CC1CCN(C2=C(NC3CCCC3)C(=O)c3ccccc3C2=O)CC1 | 24.4 µM | 0.0142 µM | 0.00908 µM
5 | COc1cnc(-c2ccccn2)nc1NC(C)C | 2.5 µM | 1.1 µM | 0.712 µM
6 | c1ccc2c(c1)OC13CCCCC1C2NCC3 (stereo unspecified) | 48.6 µM | 0.0436 µM | 0.27 µM
7 | C=CCNc1cc(-c2ccccn2)nc(-c2ccccn2)n1 | > 10 µM | 0.192 µM | 0.125 µM
8 | Cc1cc(C)c(S(=O)(=O)NCc2ccc(Cl)cc2)c(C)c1 | 48.9 µM | 6.59 µM | > 12.5 µM
9 | C#CCNC(=O)c1ccc(OC2CCN(CC3CCCCC3)CC2)c(Cl)c1 | > 100 µM | 0.396 µM | 0.499 µM
10 | CCNc1nc(NC(C)CC)nc(ON=C(C)C)n1 (stereo unspecified) | > 100 µM | 0.118 µM | 0.441 µM
11 | Cc1ccc(Cl)cc1N1CCN(S(=O)(=O)c2ccc3c(c2)oc(=O)n3C)CC1 | > 100 µM | 0.882 µM | > 12.5 µM
12 | C(#Cc1ccccc1)CN(Cc1ccccn1)Cc1ccccn1 | > 14.1 µM | 0.3 µM | 1.56 µM
13 | COc1ccc(-c2c[n+](CC(=O)c3ccc(C)cc3)c3n2CCC3)cc1 | > 100 µM | 0.2 µM | 0.745 µM
14 | CCCCCCN(C(=O)c1cccc(C(F)(F)F)c1)C(CC)c1nc2ccccc2c(=O)n1-c1ccccc1OC (stereo unspecified) | > 10 µM | 0.79 µM | 0.793 µM
15 | CCN1C(=O)N(CC)C(NNC(N)=S)C1NNC(N)=S (stereo unspecified) | > 100 µM | 0.151 µM | 0.123 µM
16 | CCCCOc1ccc(C(=O)Oc2ccccc2-c2nc3cc(C)ccn3c2NC(C)(C)CC(C)(C)C)cc1 | > 10 µM | 0.13 µM | 0.804 µM
17 | CC12CCC(C(=O)N(CC(O)Cn3c4ccc(Cl)cc4c4cc(Cl)ccc43)C1=O)C2(C)C (stereo unspecified) | > 100 µM | 0.12 µM | 0.118 µM
18 | N#CC(=Cc1cn(Cc2ccccc2Cl)c2ccccc12)c1nn(CCO)c(N)c1C#N | 44.8 µM | 0.294 µM | 0.273 µM
19 | CN(C)c1nnc(C(C#N)=Cc2cc(C(=O)c3cccc(Cl)c3)cn2C)o1 | > 100 µM | 1.03 µM | > 12.5 µM
20 | Oc1ccc(-c2nc(-c3ccc4oc5ccc(-c6[nH]c(-c7ccc(O)cc7)nc6-c6ccccc6)cc5c4c3)c(-c3ccccc3)[nH]2)cc1 | > 100 µM | 8.28 µM | 3.3 µM
21 | C=C(C)[C@@H]1CC=C(CN2C[C@H](NC(=O)c3ccc(OC)cc3OC)C[C@H]2C(=O)OC)CC1 | > 10 µM | 0.409 µM | 0.815 µM
22 | Cc1cc(Nc2cccc(Cl)c2)nc2ccc(NC(=O)c3cccnc3)cc12 | 4.19 µM | 1.31 µM | 0.721 µM
23 | COc1ccc(CN2CCOc3ccc(C(C)(O)CN(C)C)cc3C2)cc1C (stereo unspecified) | > 100 µM | 0.193 µM | 0.823 µM

Row | Compound | CC50 [1] | EC50 [2] | EC50 [3]
24 | O=C1CC(C(=O)N2CCC(c3nc(-c4cccnc4)ncc3-c3ccccc3)CC2)c2ccccc21 (stereo unspecified) | > 100 µM | 0.15 µM | 0.459 µM
25 | CN1CCCC1CCNCc1cc(-c2ccnc3cc(Cl)ccc23)ccc1O (stereo unspecified) | 15.2 µM | 0.153 µM | 0.0314 µM
26 | COc1ccc(C2N=C(N)N=C(N)N2c2ccc(C)cc2)cc1 (stereo unspecified) | > 10 µM | > 1.64 µM | 0.0738 µM
27 | CC1=C(CC(=O)c2ccc(Cl)cc2)C(=O)c2ccccc2C1=O | 46.6 µM | 1.02 µM | 2.74 µM
28 | COc1cc2c(-c3cc(Br)ccc3O)nc3c(c(-c4ccccc4)nn3-c3ccccc3)c2cc1OC | > 100 µM | 0.655 µM | 1.15 µM
29 | COc1cccc(C(=O)NC(c2ccc(Cl)cc2)c2cc(Cl)c3cccnc3c2O)c1 (stereo unspecified) | > 100 µM | 0.268 µM | 2.31 µM
30 | CCCCCOC(=O)C1=C(C)NC2=C(C(=O)CCC2)C1c1ccc(OC)c(Br)c1 (stereo unspecified) | > 100 µM | 0.65 µM | 0.615 µM
31 | COC1=CC(C)=C[C@@H](C)[C@@H](O)[C@H](C)CC(C)=CC=C[C@H](OC)[C@@H](C(C)C(O)[C@H](C)[C@@]2(O)C[C@@H](O)[C@H](C)[C@@H](C(C)C)O2)OC1=O (stereo partly specified) | > 10 µM | 0.0113 µM | 1.49 µM
32 | Cc1c(Cl)cccc1NC(=O)c1cccnc1Cl | > 10 µM | > 1.15 µM | > 1.25 µM
33 | NC(=O)C(Cc1ccccc1)Nc1ccc([N+](=O)[O-])cc1[N+](=O)[O-] (stereo unspecified) | > 10 µM | 0.68 µM | 0.883 µM
34 | CCN1C(=O)NC(c2cccc(NC(=O)Nc3cc(C(F)(F)F)cc(C(F)(F)F)c3)c2)C(C(=O)OC(C)C)=C1C (stereo unspecified) | 35.3 µM | 6.01 µM | 8.42 µM
35 | NC(=O)CSc1nnc2ccc(-c3ccc4c(c3)OCO4)nn12 | > 10 µM | > 1.11 µM | > 1.25 µM
36 | CC1(C)C2CCC(C2)C1(C)NC(=S)NN=Cc1ccccn1 (stereo unspecified) | 54.7 µM | 0.0382 µM | 0.0348 µM
37 | CCCCCCCCCCCC(OC(=O)C(CCCCN(O)C(C)=O)NC(=O)c1coc(-c2ccccc2O)n1)C(C)C(=O)NC1CCCCN(O)C1=O (stereo unspecified) [NOCARDIMICIN B] | > 10 µM | 0.00224 µM | > 0.864 µM
38 | CC1=C(CC(=O)c2cccs2)C(=O)c2ccccc2C1=O | 7.75 µM | 0.29 µM | 1.24 µM
39 | CN1C(=O)N(C)C2(c3ccccc3)NN3C(=NC12c1ccccc1)SC1=C3C(=O)c2ccccc2C1=O (stereo unspecified) | > 100 µM | 0.0955 µM | 2.83 µM
40 | CC(=O)Nc1ccc2c(c1)C(=O)N(C(C(=O)NCc1ccccc1)C1CCCCC1)[C@@H](Cc1ccc(O)cc1)C(=O)N2 (stereo partly specified) | 0.659 µM | 0.555 µM | 0.807 µM
41 | CC(C)(C)c1nn(-c2ccc(Cl)cc2)c2[nH]c(=O)c(CNCc3ccccc3)cc12 | > 100 µM | 0.539 µM | 0.731 µM
42 | COc1ccc2nc(C)cc(Nc3ccc(N4CCN(C)CC4)cc3)c2c1 | 7.33 µM | 0.153 µM | 0.0832 µM
43 | c1cc(-c2nc3ccccc3[nH]2)nc(-c2nc3ccccc3[nH]2)c1 | 47.5 µM | 0.916 µM | 0.686 µM
44 | COc1ccc(NC(=O)C2c3ccccc3C(=O)N(C3CCCC3)C2c2cccs2)cc1Cl (stereo unspecified) | > 100 µM | 0.107 µM | 0.128 µM
45 | COC(=O)c1cc(NC(=S)NC(=O)c2c(OC)cccc2OC)cc(C(=O)OC)c1 | > 100 µM | > 12.5 µM | 5.17 µM
46 | COc1ccccc1C(=O)Oc1ccccc1-c1nc2ccccn2c1NC(C)(C)CC(C)(C)C | > 10 µM | 0.0408 µM | 1.58 µM

Row | Compound | CC50 [1] | EC50 [2] | EC50 [3]
47 | COc1ccc(C(=O)C[n+]2ccc(N)c(C)c2C)cc1 | > 10 µM | > 0.665 µM | 0.438 µM
48 | CCN1/C(=C\C=C2/SC(=S)N(c3ccccc3)C2=O)C(C)(C)c2cc(-c3ccccc3)ccc21 | > 8.66 µM | 0.318 µM | 0.129 µM
49 | CCCNC(=O)N1CCC2(CC1)CC(=O)c1cc(C)ccc1O2 | > 100 µM | 0.448 µM | 0.87 µM
50 | CCCn1c(SCCNC(=O)NCC)nc(-c2ccccc2)c1-c1ccccc1 | > 10 µM | > 1.03 µM | > 1.4 µM
51 | CCN1CCN(CCCNC(=S)Nc2ccc3nc(N4CCCC4)cc(C)c3c2)CC1 | 44.2 µM | 0.773 µM | 0.256 µM
52 | CC(NS(=O)(=O)c1ccccc1)C(c1cccs1)N1CCN(c2ccccc2F)CC1 (stereo unspecified) | > 100 µM | 6.35 µM | > 12.5 µM
53 | Cc1nc2c(=O)n(C)c(=O)nc-2n(C)n1 | > 10 µM | 0.398 µM | 0.593 µM
54 | Cc1cc(Nc2ccccc2)nc(Nc2ccccc2)n1 | 20 µM | 0.248 µM | 0.259 µM
55 | COC(=O)c1ccccc1NC(=O)COc1cccc(OC)c1 | > 10 µM | 1.86 µM | > 1.41 µM
56 | CC[C@@H]1CN2CC[C@H]1C[C@H]2[C@H](O)c1ccnc2ccc(OC)cc12 | > 6.25 µM | 0.298 µM | 0.103 µM
57 | O=C1CCC2C3C=CC(C3)C12 (stereo unspecified) | > 12.4 µM | 0.447 µM | 1.78 µM
58 | CN(C)c1cc[n+](CC(=O)Nc2ccc(Cl)cc2)cc1 | > 100 µM | 0.897 µM | 0.549 µM
59 | c1cc(-c2cccc3cccnc23)nc(N2CCN(CCN3CCCC3)CC2)c1 | 70.1 µM | 0.103 µM | 0.0584 µM
60 | Cc1cc(C)cc(NC2=C(N)C(=O)c3ccccc3C2=O)c1 | > 100 µM | 0.551 µM | 0.969 µM
61 | CCN1CCN(Cc2c(O)ccc3c(=O)c(Oc4cc(C)cc(C)c4)c(C(F)(F)F)oc23)CC1 | > 100 µM | 0.296 µM | 3.63 µM
62 | CCOC(=O)C1=C(C)NC2=C(C(=O)C(C(=O)OCC)C(c3ccccc3OC)C2)C1c1ccc(Cl)cc1 (stereo unspecified) | > 100 µM | 1 µM | 5.42 µM
63 | CCN1/C(=C/c2ccc3ccccc3[n+]2CC)Sc2sc3ccccc3c21 | 4.77 µM | 0.134 µM | 0.0992 µM
64 | COc1ccccc1Cn1c(SCc2ccc(Cl)cc2)nc2ccc(Br)cc2c1=O | > 10 µM | > 1.05 µM | > 1.16 µM
65 | O=C(ON=C(c1ccncc1)c1ccc(Cl)cc1)c1ccccc1 | > 10 µM | > 0.048 µM | 1.24 µM
66 | COC(=O)CNC(c1ccccc1Cl)c1cc(Br)ccc1NS(=O)(=O)c1ccc(C)cc1 (stereo unspecified) | > 100 µM | 1.76 µM | 1.93 µM
67 | CCCCCCCC(O)(c1ccc(OCC)cc1)C(CN1CCCCC1)c1ccccc1 (stereo unspecified) | > 100 µM | 0.456 µM | 1.18 µM
